Experimental data published in patent US20090325202A1, “Methods for Developing and Assessing Therapeutic Agents” (priority 2006, published 2009).

Tests used:
[1] = test system: S6 ribosomal protein; assay: Panc 265 xenograft FNAB cells treated ex vivo, S6 ribosomal protein phosphorylation; assay type: cell-based, human; conditions: Panc 265 FNAB cells; CCI-779 1 uM; 6 hours
Method: (§1) To obtain cancer cells, each animal tumor was sampled as described above. After collection of tumor FNAB samples, xenograft animals were subsequently treated with ZD1839 or CCI-779 for 28 days and tumor volumes were determined as described above. At day 7 of therapy, AD/DQ slides were prepared from tumor FNAB samples to retrospectively correlate the results of in vivo and ex vivo chemosentitivty tests from the same xenograft animal.
To determine viability of tumor cells obtained by FNAB, trypan blue dye exclusion assay was performed. The viability of tumor cells obtained by tumor FNAB from control animals was over 95%. Approximately 75,000 tumor cells were seeded into each well of a 6-well polypropylene microplate. Cells were treated in duplicates with vehicle (control) or with ZD1839 (5 uM) or CCI-779 (1 uM) in a humidified 5% CO2 incubator at 37° C. for different periods to determine the optimal treatment time to analyze drug effects.
(§2) After the treatment cells were collected, protein extracts were prepared and Western blot analysis was performed as described above. The ex vivo effect of ZD 1839 and CCI-779 on phosphorylation of ERK1/2 or S6 ribosomal proteins, respectively, was correlated with the in vivo data gathered from the FNAB smears prepared at day 7 of treatment.

[2] = test system: S6 ribosomal protein; assay: Panc 265 xenograft in vivo FNAB smears, S6 ribosomal protein phosphorylation; parameters: species or system human; conditions: CCI-779 20 mg/kg days 1-5 i.p., FNAB day 7
Method: Animals were either untreated or treated with ZD1839: 150 mg/Kg daily or CCI-779: 20 mg/kg days 1-5 by intraperitoneal injection
as §1, §2

[3] = test system: S6 ribosomal protein; assay: In vivo tumor FNAB Western blot, S6 ribosomal protein phosphorylation (Example 5); conditions: tumor samples of treated animals compared to control
Method: Fine needle aspiration yielded up to 200 μg of total protein as determined using the BCA protein assay (Pierce) and bovine serum albumin as a standard. Protein extracts (15 μg) were added to a loading buffer boiled and electrophoresed on a 7 or 10% (w/v) polyacrylamide gel in the presence of SDS. Molecular weights of the immunoreactive proteins were estimated based upon the relative migration with colored molecular weight protein markers (Amersham Pharmacia Biotech). After electrotransfer to Immobilon-P membranes (Millipore), membranes were blocked at room temperature using SuperBlock (Pierce,#37516) for one hour. The primary antibodies were diluted at 1:1000 in 1:10 dilution of SuperBlock solution and the membranes were incubated with primary antibodies overnight at 4° C. Next day, the membranes were washed and incubated for 1 h at room temperature with horseradish peroxidase (HRP)-conjugated secondary antibodies, rabbit IgG-HRP (SC-2004), or mouse IgG-HRP (SC-2005) from Santa Cruz Biotechnology at a final dilution of 1:3000. After washing three times with Tris-buffered saline antibody binding was visualized using enhanced chemiluminescence (SuperSignal West Pico, Pierce) and autoradiography.
The expression levels and the phosphorylation status of EGFR, ERK1/2 and S6 ribosomal protein were determined on Western blot analysis.

[4] = test system: primary human pancreatic cancer xenograft tumors; assay: Tumor growth (RTG) in xenograft mouse models of primary human pancreatic cancer; assay type: in vivo, athymic (nu+/nu+) mice
Excerpt: Four-week-old female athymic (nu+/nu+) mice were purchased from Harlan (Harlan Laboratories, Washington, D.C.). The research protocol was approved by the Johns Hopkins University Animal Care and Use Committee and animals were maintained in accordance to guidelines of the American Association of Laboratory Animal Care. Briefly, frozen pancreatic xenografts in first passage in mice, after being obtained from surgical specimens of patients undergoing pancreatic resection for adenocarcinoma at the Johns Hopkins Hospital were re-implanted subcutaneously in groups of 5 mice for each patient, with 2 small pieces per mouse (F2 generation). Tumors were allowed to grow to a size of 1.5 cm at which point they were harvested, divided into small ˜3×3×3 mm pieces, and transplanted to another 18-22 mice, with two tumors per mouse. Tumors from this second mouse-to-mouse passage were allowed to grow until reaching −200 mm^3, at which time mice were randomized in the following three treatment groups, with 6 mice in each group: control (vehicle), erlotinib (50 mg/kg/day i.p.), and temsirolimus (20 mg/kg days 1-5 i.p.). Mice were monitored daily for signs of toxicity and were weighed three times per week. Tumor size was evaluated three times per week by caliper measurements using the following formula: tumor volume=[length×width^2]/2 as previously reported (19). Relative tumor growth (RTG) was calculated by tumor growth of treated mice divided by tumor growth of control mice (T/C)×100. Experiments were terminated on day 28. Tumor response was defined as sensitive, when RTG was less than 50% on day 28.

**Q.** Which results are given for `CO[C@H]1C[C@@H]2CC[C@@H](C)[C@@](O)(O2)C(=O)C(=O)N2CCCC[C@H]2C(=O)O[C@H]([C@H](C)C[C@@H]2CC[C@@H](OC(=O)C(C)(CO)CO)[C@H](OC)C2)CC(=O)[C@H](C)/C=C(\C)[C@@H](O)[C@@H](OC)C(=O)[C@H](C)C[C@H](C)/C=C/C=C/C=C/1C` [temsirolimus, Temsirolimus]?
**A.** activity (phosphorylation) of target protein S6 ribosomal protein ex vivo [1]: successfully inhibited the activity of its target protein; target protein phosphorylation in vivo [2]: strongly inhibited target protein phosphorylation; S6 ribosomal protein phosphorylation in vivo [3]: effectively blocked S6 ribosomal protein phosphorylation; relative growth (RTG) ([4]; all tumors except A194, temsirolimus 20 mg/kg days 1-5 i.p., day 28): less than 50%; tumor response ([4]; tumor A194): resistant (greater than 50% RTG and were defined as resistant); tumor response ([4]; tumor A198): sensitive (Tumor response was defined as sensitive, when RTG was less than 50% on day 28)
